Source: PubChem BioAssay AID256 (DTP/NCI, 2004)
Values joined by “and” are separate entries in the source; they are usually repeats but may differ in a detail not shown here. Identical values can stand only once. Toxic doses and inconclusive results are not listed. How the source made its calls: active means survival T/C of 150% or more; inactive means T/C below 125% in these data.

System: CD2F1 mice, L1210 leukemia ip, survival T/C
Assay: NCI In Vivo Anticancer Drug Screen. Data for tumor model L1210 Leukemia (intraperitoneal) in CD2F1 (CDF1) mice
Conditions: higher = longer survival
In short: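 Activity against a transplanted murine tumor was judged by comparing the compound group with a vehicle group. The outcome in the treated animals was divided by that in the controls.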

[1] = endpoint: mean survival time, dose: 100.0 mg/kg/injection, schedule: Q04DX003 (ip), vehicle: saline with Tween-80
[2] = endpoint: mean survival time, dose: 200.0 mg/kg/injection, schedule: Q04DX003 (ip), vehicle: saline with Tween-80
[3] = endpoint: mean survival time, dose: 400.0 mg/kg/injection, schedule: Q04DX003 (ip), vehicle: saline with Tween-80

Measured: T/C

COc1cccc(C2NC(=O)c3c(n[nH]c3N)S2)c1O (configuration not stated)
inactive: endpoint: median survival time, dose: 12.5 mg/kg/injection, schedule: Q01DX009 (ip), vehicle: saline with Tween-80 101 % of control | endpoint: median survival time, dose: 25.0 mg/kg/injection, schedule: Q01DX009 (ip), vehicle: saline with Tween-80 101 % of control | endpoint: median survival time, dose: 50.0 mg/kg/injection, schedule: Q01DX009 (ip), vehicle: saline with Tween-80 102 % of control | endpoint: median survival time, dose: 100.0 mg/kg/injection, schedule: Q01DX009 (ip), vehicle: saline with Tween-80 98 % of control | endpoint: median survival time, dose: 200.0 mg/kg/injection, schedule: Q01DX009 (ip), vehicle: saline with Tween-80 97 % of control | endpoint: median survival time, dose: 400.0 mg/kg/injection, schedule: Q01DX009 (ip), vehicle: saline with Tween-80 93 % of control

OC(CC(CC(O)(C(F)(F)F)C(F)(F)F)=NNc1ccccc1)(C(F)(F)F)C(F)(F)F
inactive: endpoint: mean survival time, dose: 25.0 mg/kg/injection, schedule: Q01DX009 (ip), vehicle: saline with Tween-80 92 % of control | endpoint: mean survival time, dose: 50.0 mg/kg/injection, schedule: Q01DX009 (ip), vehicle: saline with Tween-80 93 % of control

Nc1cccc2cc3ccccc3[n+]([O-])c12
inactive: [1] 104 % of control | [2] 108 % of control | [3] 95 % of control

S=c1[nH]nc2n1NC(c1ccoc1)=NN2
inactive: endpoint: mean survival time, dose: 25.0 mg/kg/injection, schedule: Q04DX003 (ip), vehicle: saline with Tween-80 96 % of control | endpoint: mean survival time, dose: 50.0 mg/kg/injection, schedule: Q04DX003 (ip), vehicle: saline with Tween-80 100 % of control | [1] 90 % of control and 93 % of control | [2] 107 % of control

CC(C)C1(C)NC(=O)NC1=O (configuration not stated)
inactive: endpoint: mean survival time, dose: 100.0 mg/kg/injection, schedule: Q01DX009 (ip), vehicle: saline 105 % of control | endpoint: mean survival time, dose: 200.0 mg/kg/injection, schedule: Q01DX009 (ip), vehicle: saline 94 % of control | endpoint: mean survival time, dose: 400.0 mg/kg/injection, schedule: Q01DX009 (ip), vehicle: saline 98 % of control

CCCCCCCCC/C=C(\CCCCCCCCCC)c1ccccc1
inactive: endpoint: mean survival time, dose: 100.0 mg/kg/injection, schedule: Q01DX001 (ip), vehicle: saline 94 % of control | endpoint: mean survival time, dose: 200.0 mg/kg/injection, schedule: Q01DX001 (ip), vehicle: saline 94 % of control | endpoint: mean survival time, dose: 400.0 mg/kg/injection, schedule: Q01DX001 (ip), vehicle: saline 100 % of control

Nc1nnc(Cl)s1
inactive: endpoint: mean survival time, dose: 100.0 mg/kg/injection, schedule: Q01DX001 (ip), vehicle: saline with Tween-80 108 % of control | endpoint: mean survival time, dose: 200.0 mg/kg/injection, schedule: Q01DX001 (ip), vehicle: saline with Tween-80 104 % of control | endpoint: mean survival time, dose: 400.0 mg/kg/injection, schedule: Q01DX001 (ip), vehicle: saline with Tween-80 97 % of control

Nc1nc(=S)n(C2OCC(O)C(O)C2O)c2ccccc12 (configuration not stated)
inactive: endpoint: mean survival time, dose: 12.5 mg/kg/injection, schedule: Q01DX005 (ip), vehicle: distilled water + Tween-80 97 % of control | endpoint: mean survival time, dose: 25.0 mg/kg/injection, schedule: Q01DX005 (ip), vehicle: distilled water + Tween-80 96 % of control | endpoint: mean survival time, dose: 50.0 mg/kg/injection, schedule: Q01DX005 (ip), vehicle: distilled water + Tween-80 96 % of control | endpoint: mean survival time, dose: 100.0 mg/kg/injection, schedule: Q01DX005 (ip), vehicle: distilled water + Tween-80 96 % of control | endpoint: mean survival time, dose: 200.0 mg/kg/injection, schedule: Q01DX005 (ip), vehicle: distilled water + Tween-80 91 % of control

COC(=O)C1(C)CCCC2(C)C1CCC13OCC(CC21)C1(C(C)C)OC31 (configuration not stated)
inactive: [1] 101 % of control | [2] 100 % of control | [3] 95 % of control
